The record followed here is ChEMBL document CHEMBL1127124, “Selective inactivation of monoamine oxidase B by aminoethyl 3-chlorobenzyl ether” (Bioorg Med Chem Lett, 1993).

Assay [1] addresses T1, Amine oxidase [flavin-containing] B (Bos taurus, UniProt P56560).
T1 sequence (P56560 whole entry): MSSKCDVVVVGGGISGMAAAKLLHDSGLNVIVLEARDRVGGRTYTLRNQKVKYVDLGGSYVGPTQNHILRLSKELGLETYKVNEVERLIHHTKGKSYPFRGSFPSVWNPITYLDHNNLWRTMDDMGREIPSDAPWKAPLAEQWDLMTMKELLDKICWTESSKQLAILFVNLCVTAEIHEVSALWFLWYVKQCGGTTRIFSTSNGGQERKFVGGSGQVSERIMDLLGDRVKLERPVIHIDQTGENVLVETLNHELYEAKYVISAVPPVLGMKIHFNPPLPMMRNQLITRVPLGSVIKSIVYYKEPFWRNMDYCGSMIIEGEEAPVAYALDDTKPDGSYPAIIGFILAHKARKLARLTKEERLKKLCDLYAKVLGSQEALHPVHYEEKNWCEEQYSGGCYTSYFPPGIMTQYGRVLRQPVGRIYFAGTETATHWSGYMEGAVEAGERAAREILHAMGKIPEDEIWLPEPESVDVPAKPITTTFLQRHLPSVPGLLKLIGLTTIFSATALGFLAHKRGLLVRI
Briefly: Tested for enzyme kinetic activity with purified bovine liver MAO B. The settings on record: cattle.

Assay [2] addresses T2, Amine oxidase [flavin-containing] A (Bos taurus, UniProt P21398).
T2 sequence (P21398 whole entry): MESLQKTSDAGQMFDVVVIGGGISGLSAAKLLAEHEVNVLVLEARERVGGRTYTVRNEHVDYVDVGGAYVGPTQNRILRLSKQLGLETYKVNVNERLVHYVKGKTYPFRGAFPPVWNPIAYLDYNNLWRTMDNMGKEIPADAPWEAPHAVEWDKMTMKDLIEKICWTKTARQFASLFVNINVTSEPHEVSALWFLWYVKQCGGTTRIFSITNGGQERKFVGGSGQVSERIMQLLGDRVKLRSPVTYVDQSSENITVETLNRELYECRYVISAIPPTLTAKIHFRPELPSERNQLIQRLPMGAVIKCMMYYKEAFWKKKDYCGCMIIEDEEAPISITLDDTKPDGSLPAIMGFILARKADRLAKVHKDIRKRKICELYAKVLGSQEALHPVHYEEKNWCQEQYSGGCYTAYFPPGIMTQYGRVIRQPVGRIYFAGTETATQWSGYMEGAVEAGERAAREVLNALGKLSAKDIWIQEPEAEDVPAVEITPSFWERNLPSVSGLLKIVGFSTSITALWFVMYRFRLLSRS
Nature of the assay: Tested for enzyme affinity with purified bovine liver MAO A.

Assay [3] deals with T1, Amine oxidase [flavin-containing] B. Nature of the assay: Tested for enzyme affinity with purified bovine liver MAO B.
The target in assay [4] is T2, Amine oxidase [flavin-containing] A. Briefly: Tested for enzyme kinetic activity with purified bovine liver MAO A. The note with it: cattle.

Consider `NCCOCc1cccc(Cl)c1`, for which the kinact – broadly, the rate constant of inactivation at saturating inhibitor – is 0.0117 s⁻¹ in assay [1] and 0.000467 s⁻¹ in assay [4]. Also, the Ki (commonly a dissociation constant, usually derived from enzyme kinetics or from competition with a known ligand) in assay [2] turned out to be 340 µM; in assay [3], 5 µM.
